# Patent US20200289474A1, “METHODS OF TREATING PAIN WITH A THIAZOLINE ANTI-HYPERALGESIC” (priority 2019, published 2020)
# Values joined by “and” are separate entries in the source; they are usually repeats but may differ in a detail not shown here. Equal entries are not always repeated. Where two headings read alike, the source gives them in different places.
# What was measured:
# [1] = beagle dog single dose study IV 10 mg/kg, oral 10 and 100 mg/kg; format: in vivo; conditions: fasted beagle dogs
# Protocol: In another study Compound 1 was administered IV as a single dose to fasted beagle dogs at 10 mg/kg and orally at 10 and 100 mg/kg. Compound 1 was rapidly and well absorbed orally, within 1 hr, reaching peak plasma concentrations of 15 and 108 μg/mL at 10 and 100 mg/kg doses, respectively. The compound distributed readily in tissues with a moderate steady-state volume of distribution (0.3 L/kg).
# [2] = system: incision-induced hyperalgesia; assay: mouse model of severe incision; format: in vivo; conditions: 10 mg/kg IP daily for 15 days; Days 1, 3, 6, 8, 10, 13, 15 and 21
# Text: Two incisional pain models were used to assess Compound 1 effects on hyperalgesia. The first model is referred to as the Brennan model in which, under anesthesia, a 1 cm longitudinal incision to the skin and underlying fascia of a rat hindpaw is made. The second is a variation but is a more invasive procedure in which the skin and muscle are spread apart using forceps which creates a longer-lasting hypersensitivity.
# In a mouse model of severe incision (tissue and muscle spread with forceps), animals were at baseline for mechanical thresholds prior to incision and then given a daily dose of Compound 1 (10 mg/kg IP) or vehicle for 15 days.
# [3] = solubility in organic/aqueous solvents; format: physicochemical
# HEK293 cells = assay: cytotoxicity by lactate dehydrogenase (LDH) release; format: cell-based
# [4] = rat 7 day repeat IV dose study; format: in vivo; conditions: 7 day IV
# Protocol: In a third study, SD rats (3/sex/group) were administered Compound 1 IV via the tail vein for 7 days at doses of 0, 75 or 150 mg/kg/day. The vehicle was 15% dimethylacetamide, 85% phosphate buffered saline. Blood was collected from all surviving animals for toxicokinetic analysis approximately 2 hours after the last dose on Day 7.
# OAT3 = target: T1, OAT3 (Homo sapiens, UniProt Q8TCC7); assay: transporter inhibition, HEK293 cells, probe accumulation; format: in vitro ADME
# T1 construct: expressed in transfected cells; host or cells: HEK293 cells
# T1 sequence (Q8TCC7 1-542): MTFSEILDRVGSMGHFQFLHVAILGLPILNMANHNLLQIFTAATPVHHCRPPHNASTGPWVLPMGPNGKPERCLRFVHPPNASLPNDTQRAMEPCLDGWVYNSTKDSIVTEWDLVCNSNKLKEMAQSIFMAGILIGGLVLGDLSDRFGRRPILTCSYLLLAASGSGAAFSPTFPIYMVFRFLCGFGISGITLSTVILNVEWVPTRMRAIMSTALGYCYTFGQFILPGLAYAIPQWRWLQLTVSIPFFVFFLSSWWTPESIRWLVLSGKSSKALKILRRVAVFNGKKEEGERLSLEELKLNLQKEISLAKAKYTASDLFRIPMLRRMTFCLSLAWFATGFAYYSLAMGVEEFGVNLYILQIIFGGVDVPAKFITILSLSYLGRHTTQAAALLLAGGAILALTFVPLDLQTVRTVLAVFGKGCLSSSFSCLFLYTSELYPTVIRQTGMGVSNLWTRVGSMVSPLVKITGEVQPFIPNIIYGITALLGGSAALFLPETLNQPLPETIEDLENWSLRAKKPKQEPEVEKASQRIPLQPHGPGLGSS
# normal sensation = normal sensation in uninjured animals
# [5] = dog 7-day repeat dose PO study; format: in vivo; conditions: dog 7 Day PO, N = 1
# Protocol: The objective was to develop a preliminary toxicity profile of Compound 1 following daily oral (gavage) administration for 7 days to male and female dogs to support dose selection for a 28-day toxicity study in dogs. Doses were selected based on the results of the MTD phase. Dose levels were 0 (Vehicle Control), 200, 350 and 400 mg/kg (1 dog/sex/group). The vehicle was 0.5% aqueous HPMC.
# The animals used in this study were returned to the holding colony
# stability in plasma = format: in vitro ADME; conditions: rat plasma
smiles,measurement,setting,value
"CC1(C)SC(Nc2ccccc2O)=N[C@@H]1C(=O)O.Cl [Compound 1, (R)-2-(2-hydroxyphenylamino)-5,5-dimethyl-4,5-dihydrothiazole-4-carboxylic acid mono-hydrochloride]",mean terminal half-life,[1],3.9 h
same,steady-state volume of distribution,[1],0.3 L/kg
same,oral bioavailability,[1]; both 10 and 100 mg/kg,75%
same,peak plasma concentration,[1]; oral 10 mg/kg,15 µg/mL
same,peak plasma concentration,[1]; oral 100 mg/kg,108 µg/mL
same,time to peak plasma concentration,[1]; oral 10 and 100 mg/kg,≤ 1 h
same,hyperalgesia (mechanical thresholds),[2],protected from hyperalgesia
same,solubility,"[3]; in 2-propanol, ethanol, 10% water: isopropyl acetate, 10% water/tetrahydrofuran, and water",sparingly soluble
same,solubility,[3]; in methanol and tert-butyl alcohol: water (1:1),freely soluble
same,solubility,"[3]; in n-heptane, toluene, acetone, tetrahydrofuran, ethyl acetate, isopropyl acetate, t-butyl methyl ether, t-butyl alcohol",less than sparingly soluble
same,cytotoxicity (LDH release),HEK293 cells,less than 25%
same,Conc in rat plasma,"[4]; 75 mg/kg, F, 2 h after last dose Day 7, individual animals, mono-hydrochloride, 75 mg/kg",2670 ng/mL and 3250 ng/mL and 3180 ng/mL
same,concentration at 2 h,"[4]; 75 mg/kg, F, 2 h after last dose Day 7, individual animals, mono-hydrochloride, 75 mg/kg, read-out: Conc in rat plasma",12.20 µM and 11.94 µM
same,Conc in rat plasma,"[4]; 75 mg/kg, M, 2 h after last dose Day 7, individual animals, mono-hydrochloride, 75 mg/kg",2350 ng/mL and 2380 ng/mL and 4310 ng/mL
same,concentration at 2 h,"[4]; 75 mg/kg, M, 2 h after last dose Day 7, individual animals, mono-hydrochloride, 75 mg/kg, read-out: Conc in rat plasma",8.94 µM and 16.18 µM
same,Conc in rat plasma,"[4]; 150 mg/kg, F, 2 h after last dose Day 7, individual animals, mono-hydrochloride, 150 mg/kg",5990 ng/mL and 2430 ng/mL and 5530 ng/mL
same,concentration at 2 h,"[4]; 150 mg/kg, F, 2 h after last dose Day 7, individual animals, mono-hydrochloride, 150 mg/kg, read-out: Conc in rat plasma",22.49 µM and 9.12 µM and 20.76 µM
same,Conc in rat plasma,"[4]; 150 mg/kg, M, 2 h after last dose Day 7, individual animals, mono-hydrochloride, 150 mg/kg",4280 ng/mL and 6910 ng/mL and 6560 ng/mL
same,concentration at 2 h,"[4]; 150 mg/kg, M, 2 h after last dose Day 7, individual animals, mono-hydrochloride, 150 mg/kg, read-out: Conc in rat plasma",25.95 µM and 24.63 µM
same,concentration at 2 h,"[4]; female, Sprague-Dawley (SD), rat, plasma, iv, 75 mg/kg, 75 mg/kg, F, 2 h after last dose Day 7, individual animals, read-out: Conc in rat plasma",2670 ng/mL and 10 µM
same,concentration at 2 h,"[4]; female, Sprague-Dawley (SD), rat, plasma, iv, 75 mg/kg, 75 mg/kg, F, 2 h after last dose Day 7, read-out: Mean Conc in rat plasma",3030 ng/mL
same,concentration at 2 h,"[4]; female, Sprague-Dawley (SD), rat, plasma, iv, 150 mg/kg, 150 mg/kg, F, 2 h after last dose Day 7, read-out: Mean Conc in rat plasma",4650 ng/mL
same,concentration at 2 h,"[4]; male, Sprague-Dawley (SD), rat, plasma, iv, 75 mg/kg, 75 mg/kg, M, 2 h after last dose Day 7, individual animals, read-out: Conc in rat plasma",2350 ng/mL and 8.82 µM
same,concentration at 2 h,"[4]; male, Sprague-Dawley (SD), rat, plasma, iv, 75 mg/kg, 75 mg/kg, M, 2 h after last dose Day 7, read-out: Mean Conc in rat plasma",3010 ng/mL
same,concentration at 2 h,"[4]; male, Sprague-Dawley (SD), rat, plasma, iv, 150 mg/kg, 150 mg/kg, M, 2 h after last dose Day 7, individual animals, read-out: Conc in rat plasma",4280 ng/mL and 16.1 µM
same,concentration at 2 h,"[4]; male, Sprague-Dawley (SD), rat, plasma, iv, 150 mg/kg, 150 mg/kg, M, 2 h after last dose Day 7, read-out: Mean Conc in rat plasma",5920 ng/mL
same,inhibition,OAT3,weakly inhibits
same,effect on normal sensation,normal sensation,does not alter normal sensation
same,AUC0-last,"[5]; Day 1, 200 mg/kg, F",582 µg·h/mL
same,Cmax,"[5]; Day 1, 200 mg/kg, F",152000 ng/mL
same,t1/2,"[5]; Day 1, 200 mg/kg, F",1.3 h
same,AUC0-last,"[5]; Day 1, 200 mg/kg, M",538 µg·h/mL
same,Cmax,"[5]; Day 1, 200 mg/kg, M",150000 ng/mL
same,t1/2,"[5]; Day 1, 200 mg/kg, M",1.1 h
same,AUC0-last,"[5]; Day 1, 350 mg/kg, F",834 µg·h/mL
same,Cmax,"[5]; Day 1, 350 mg/kg, F",228000 ng/mL
same,t1/2,"[5]; Day 1, 350 mg/kg, F",1.2 h
same,AUC0-last,"[5]; Day 1, 350 mg/kg, M",613 µg·h/mL
same,Cmax,"[5]; Day 1, 350 mg/kg, M",176000 ng/mL
same,t1/2,"[5]; Day 1, 350 mg/kg, M",1.1 h
same,AUC0-last,"[5]; Day 1, 400 mg/kg, F",464 µg·h/mL
same,Cmax,"[5]; Day 1, 400 mg/kg, F",109000 ng/mL
same,t1/2,"[5]; Day 1, 400 mg/kg, F",3.9 h
same,AUC0-last,"[5]; Day 1, 400 mg/kg, M",657 µg·h/mL
same,Cmax,"[5]; Day 1, 400 mg/kg, M",167000 ng/mL
same,t1/2,"[5]; Day 1, 400 mg/kg, M",1.2 h
same,AUC0-last,"[5]; Day 7, 200 mg/kg, F",411 µg·h/mL
same,Cmax,"[5]; Day 7, 200 mg/kg, F",103000 ng/mL
same,t1/2,"[5]; Day 7, 200 mg/kg, F",1.5 h
same,AUC0-last,"[5]; Day 7, 200 mg/kg, M",540 µg·h/mL
same,Cmax,"[5]; Day 7, 200 mg/kg, M",121000 ng/mL
same,t1/2,"[5]; Day 7, 200 mg/kg, M",1.4 h
same,AUC0-last,"[5]; Day 7, 350 mg/kg, F",738 µg·h/mL
same,Cmax,"[5]; Day 7, 350 mg/kg, F",207000 ng/mL
same,t1/2,"[5]; Day 7, 350 mg/kg, F",2.4 h
same,tmax,"[5]; Day 7, 350 mg/kg, F",0.5 h
same,AUC0-last,"[5]; Day 7, 350 mg/kg, M",591 µg·h/mL
same,Cmax,"[5]; Day 7, 350 mg/kg, M",184000 ng/mL
same,t1/2,"[5]; Day 7, 350 mg/kg, M",1.2 h
same,AUC0-last,"[5]; Day 7, 400 mg/kg, F",751 µg·h/mL
same,Cmax,"[5]; Day 7, 400 mg/kg, F",183000 ng/mL
same,t1/2,"[5]; Day 7, 400 mg/kg, F",2.5 h
same,AUC0-last,"[5]; Day 7, 400 mg/kg, M",210 µg·h/mL
same,Cmax,"[5]; Day 7, 400 mg/kg, M",69000 ng/mL
same,t1/2,"[5]; Day 7, 400 mg/kg, M",1.3 h
same,stability in plasma,stability in plasma,stable
